The compounds below were run against Human CARM1 (PRMT4) (Homo sapiens (Human), UniProt Q86X55) (assay: CARM1 enzyme assay on peptide substrate (3H-SAM Flashplate)). Conditions: Biochemical potencies, classification codes; read-out: Biochem IC50.
Sequence of Human CARM1 (PRMT4) (Q86X55 other isoform, or with tags, fused parts or gaps isoform Q86X55-1): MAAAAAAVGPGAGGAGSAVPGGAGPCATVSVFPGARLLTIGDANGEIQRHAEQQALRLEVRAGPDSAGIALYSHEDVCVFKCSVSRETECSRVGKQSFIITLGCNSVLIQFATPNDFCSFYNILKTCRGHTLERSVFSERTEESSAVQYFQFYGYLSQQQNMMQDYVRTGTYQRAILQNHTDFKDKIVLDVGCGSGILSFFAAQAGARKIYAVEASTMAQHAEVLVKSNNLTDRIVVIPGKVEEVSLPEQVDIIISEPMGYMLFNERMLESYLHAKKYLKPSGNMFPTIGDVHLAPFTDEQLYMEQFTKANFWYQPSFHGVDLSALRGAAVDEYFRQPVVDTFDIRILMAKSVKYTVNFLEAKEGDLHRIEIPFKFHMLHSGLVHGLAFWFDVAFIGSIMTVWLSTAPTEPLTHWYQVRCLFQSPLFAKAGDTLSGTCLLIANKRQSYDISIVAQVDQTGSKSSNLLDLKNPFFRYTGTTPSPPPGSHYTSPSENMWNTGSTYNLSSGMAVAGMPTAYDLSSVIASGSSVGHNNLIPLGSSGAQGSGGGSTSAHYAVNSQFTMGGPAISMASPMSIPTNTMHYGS

Row | Compound | IC50 [nM]
1 | CNC[C@@H](O)COc1ccc(Cl)c(-c2nc(NC3CCN(C(=O)OC)CC3)c(C)c(-c3c(C)noc3C)n2)c1 [Example 104-3] | < 100
2 | CCOC(=O)N1CCC(Nc2nc(-c3cc(OC[C@@H](O)CNC)ccc3Cl)nc(-c3c(C)noc3C)c2C)CC1 [Example 105-3] | < 100
3 | CCNC(=O)N1CCN(c2nc(-c3cccc(OCC(O)CNC)c3)nc(-c3c(C)noc3C)c2C)CC1 (centres unmarked) [Example 106-1a] | < 100
4 | CNC[C@H](O)COc1ccc(F)c(-c2nc(-c3c(C)noc3C)c(C)c(N3CCC4(CCN(C(=O)OC)C4)C3)n2)c1 (some centres unmarked) [Example 106-3] | < 100
5 | CNCC(O)COc1cccc(-c2nc(-c3c(C)noc3C)c(C)c(N3CCN(C(=O)C(F)F)CC3)n2)c1 (centres unmarked) [Example 107-1a] | < 100
6 | CNCC(O)COc1cccc(-c2nc(-c3c(C)noc3C)c(C)c(N3CCN(C(=O)C4CCOCC4)CC3)n2)c1 (centres unmarked) [Example 108-1a] | < 100
7 | CNC[C@@H](O)COc1ccc(Cl)c(-c2nc(-c3c(C)noc3C)c(C)c(N3CC4(CCN(C5CC5)CC4)C3)n2)c1 [Example 108-3] | < 100
8 | CNCC(O)COc1cccc(-c2nc(-c3c(C)noc3C)cc(N3C[C@H]4C[C@@H]3CN4)n2)c1 (some centres unmarked) [Example 109-1a] | < 100
9 | CNCC(O)COc1cccc(-c2nc(-c3c(C)noc3C)c(C)c(N3CCN4C(=O)OC[C@@H]4C3)n2)c1 (some centres unmarked) [Example 110-1a] | < 100
10 | CNC[C@@H](O)COc1ccc(Cl)c(-c2nc(N[C@H]3C[C@@](C)(OC)C3)c(C)c(-c3c(C)noc3C)n2)c1 [Example 110-3] | < 100
11 | CNCC(O)COc1cccc(-c2nc(-c3c(C)noc3C)c(C)c(N3CC[C@@H](S(C)(=O)=O)C3)n2)c1 (some centres unmarked) [Example 111-1a] | < 100
12 | CNC[C@@H](O)COc1ccc(Cl)c(-c2nc(N[C@H]3CCOC3)c(C)c(-c3c(C)noc3C)n2)c1 [Example 111-3] | < 100
13 | CNCC(O)COc1cccc(-c2nc(-c3c(C)noc3C)cc(-c3cnc4cnccn34)n2)c1 (centres unmarked) [Example 112-1a] | < 100
14 | CCOC(=O)N1CC[C@@H](Nc2nc(-c3cc(OC[C@H](O)CNC)ccc3Cl)nc(-c3c(C)noc3C)c2C)C1 [Example 112-3] | < 100
15 | CNCC(O)COc1cccc(-c2nc(NCC3(O)CCOCC3)c(C)c(-c3c(C)noc3C)n2)c1 (centres unmarked) [Example 114-1a] | < 100
16 | CNC[C@@H](O)COc1ccc(F)c(-c2nc(-c3c(C)noc3C)c(C)c(N3Cc4cccnc4C3)n2)c1 [Example 114-3] | < 100
17 | CNCC(O)COc1cccc(-c2nc(NCC3(C)CCOCC3)c(C)c(-c3c(C)noc3C)n2)c1 (centres unmarked) [Example 115-1a] | < 100
18 | CNC[C@@H](O)COc1ccc(Cl)c(-c2nc(-c3c(C)noc3C)c(C)c(N3CCC4(CC3)CN(C(=O)OC)C4)n2)c1 [Example 115-3] | < 100
19 | CNCC(O)COc1cccc(-c2nc(-c3c(C)noc3C)c(C)c(N3C[C@H]4CC[C@@H](C3)N4C)n2)c1 (some centres unmarked) [Example 116-1a] | < 100
20 | CNC[C@@H](O)COc1ccc(Cl)c(-c2nc(OC[C@H]3CCCO3)c(C)c(-c3c(C)noc3C)n2)c1 [Example 116-3] | < 100
21 | CNCC(O)COc1cccc(-c2nc(-c3c(C)noc3C)c(C)c(N3[C@@H]4CC[C@H]3CN(C)C4)n2)c1 (some centres unmarked) [Example 117-1a] | < 100
22 | CNC[C@@H](O)COc1ccc(Cl)c(-c2nc(OC[C@H]3CCOC3)c(C)c(-c3c(C)noc3C)n2)c1 [Example 117-3] | < 100
23 | CNCC(O)COc1cccc(-c2nc(NC3CCN(C(=O)OC)CC3)c(C)c(-c3c(C)noc3C)n2)c1 (centres unmarked) [Example 118-1a] | < 100
24 | CNC[C@@H](O)COc1ccc(Cl)c(-c2nc(-c3c(C)noc3C)c(C)c(N3CC4(CCOCC4)C3)n2)c1 [Example 118-3] | < 100
25 | CNC[C@@H](O)COc1ccc(Cl)c(-c2nc(-c3c(C)noc3C)c(C)c(N3CC4(CCCOC4)C3)n2)c1 [Example 119-3] | < 100
26 | CNCC(O)COc1cccc(-c2nc(-c3c(C)noc3C)cc(N3CCN(C(=O)N(C)C)CC3)n2)c1 (centres unmarked) [Example 120-1a] | < 100

Source: US20230279020A9, “CARM1 INHIBITORS AND USES THEREOF” (Epizyme, Inc., priority 2013, published 2023)
